Source: paper PMC8476755 (Frontiers in Chemistry, 2021)
Where two headings read alike, the source gives them in different places.

Legend:
BGT1 wt = molecular target: T1, BGT1 wt (Homo sapiens, UniProt P48065); experiment: [3H]GABA uptake assay, transient expression in tsA201 cells; format: cell-based; settings: for IC50: BGT1 wt, tsA201 cells; for Selectivity ratio for BGT1 over GAT3: [3H]GABA uptake IC50 GAT3 wt / BGT1 wt
T1 construct: expressed in transfected cells; host or cells: tsA201 (transformed HEK293), transient
T1 sequence (P48065 1-614): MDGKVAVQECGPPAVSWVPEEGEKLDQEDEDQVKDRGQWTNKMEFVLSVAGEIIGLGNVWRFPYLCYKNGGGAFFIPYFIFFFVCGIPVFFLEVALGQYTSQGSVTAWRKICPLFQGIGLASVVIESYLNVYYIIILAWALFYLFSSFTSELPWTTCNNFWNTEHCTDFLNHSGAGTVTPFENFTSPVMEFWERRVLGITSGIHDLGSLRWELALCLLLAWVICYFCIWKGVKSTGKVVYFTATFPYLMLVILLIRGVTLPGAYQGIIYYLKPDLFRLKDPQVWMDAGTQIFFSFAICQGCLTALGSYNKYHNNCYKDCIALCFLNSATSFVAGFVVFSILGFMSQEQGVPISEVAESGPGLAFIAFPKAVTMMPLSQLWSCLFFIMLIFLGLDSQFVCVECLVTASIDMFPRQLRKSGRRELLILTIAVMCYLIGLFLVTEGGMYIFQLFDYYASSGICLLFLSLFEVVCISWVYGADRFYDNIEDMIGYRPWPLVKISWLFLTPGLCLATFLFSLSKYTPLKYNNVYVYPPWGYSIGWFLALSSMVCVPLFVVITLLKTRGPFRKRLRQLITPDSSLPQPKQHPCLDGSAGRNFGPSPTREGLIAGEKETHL
Excerpt: (§1) FIGURE 6 (A) Pocket alignment of the orthosteric site of the four GAT subtypes colored according to the default ClustalX color scheme ([Larkin et al., 2007]). The pocket was defined as all corresponding GAT residues (15 in total) that are within a distance of 4.5 Å of the co-crystallized ligand leucine in the homologous LeuT crystal structure (PDB ID 2A65) ([Yamashita et al., 2005]) according to the alignment by Kickinger et al. ([Kickinger et al., 2019]). The mutated residues in BGT1 and the corresponding residues in GAT1-3 are indicated by a red box. The numbering of all residues within the orthosteric pocket can be found in the Supplementary Table S1.
(§2) The tsA201 cell line (a transformed HEK293 cell line), the Flp-In CHO cell lines stably expressing human (h) GATs and the HEK293 cell line stably expressing human α1β2γ2 GABAA receptors have been described previously and were cultured accordingly ([Al-Khawaja et al., 2014]; [Falk-Petersen et al., 2020]). The tsA201 cell line used for transient expression of hGATs was transfected with DNA constructs (8 μg per 10 cm plate) using 40 μL PolyFect transfection reagent according to the manufacturer’s protocol (Qiagen).
(§3) Briefly, cells were seeded in white 96-well plates (White Opaque Tissue Culture (TC) plated 96-well Microplate) pre-coated with PDL. Medium was removed on the following day and cells washed with 100 µL/well assay buffer (HBSS supplemented with 20 mM HEPES, 1 mM CaCl2 and 1 mM MgCl2, pH 7.4). […] The cells were washed 3 times with 100 µL/well ice-cold assay buffer, 150 µL/well MicroScint™20 was subsequently added before the plate was shaken for at least 1 h. The plate was counted in a Packard TopCounter microplate scintillation counter (PerkinElmer) for 3 min per well. […] Data presented is the pooled data of at least three independent experiments with three technical replicates if not stated otherwise in figure legends. Concentration–response curves were fitted by non-linear regression to the sigmoidal concentration-response model with GraphPad Prism (version 9.0.0, GraphPad Software, San Diego, CA, United States) as described ([Lie et al., 2020]).

GAT3 wt = molecular target: T2, GAT3 wt (Homo sapiens, UniProt P48066); experiment: as above; format: cell-based
T2 construct: expressed in transfected cells; host or cells: tsA201 (transformed HEK293), transient
T2 sequence (P48066 1-632): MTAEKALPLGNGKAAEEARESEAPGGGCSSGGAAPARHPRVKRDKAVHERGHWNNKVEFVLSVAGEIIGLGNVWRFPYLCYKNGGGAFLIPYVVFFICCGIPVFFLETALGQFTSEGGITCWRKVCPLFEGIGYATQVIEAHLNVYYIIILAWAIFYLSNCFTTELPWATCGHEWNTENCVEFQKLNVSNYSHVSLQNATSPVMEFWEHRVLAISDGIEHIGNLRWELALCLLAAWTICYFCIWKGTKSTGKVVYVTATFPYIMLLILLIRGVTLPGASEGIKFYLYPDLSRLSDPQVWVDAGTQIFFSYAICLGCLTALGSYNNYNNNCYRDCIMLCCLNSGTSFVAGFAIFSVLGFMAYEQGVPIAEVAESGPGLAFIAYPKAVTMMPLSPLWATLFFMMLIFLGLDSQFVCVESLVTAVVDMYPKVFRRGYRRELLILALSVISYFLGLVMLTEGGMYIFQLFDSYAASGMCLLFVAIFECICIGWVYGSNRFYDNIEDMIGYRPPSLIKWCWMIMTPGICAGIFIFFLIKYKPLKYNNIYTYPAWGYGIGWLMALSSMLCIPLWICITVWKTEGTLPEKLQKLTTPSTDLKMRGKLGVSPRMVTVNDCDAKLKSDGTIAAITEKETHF
Excerpt: as §1, §2, §3

| SMILES | IC50 (BGT1 wt; 30 nM [3H]GABA, read-out: IC50) | Selectivity ratio for BGT1 over GAT3 (BGT1 wt) | IC50 (GAT3 wt) | IC50 (BGT1 wt; read-out: pIC50 ± S.E.M. (converted)) |
| --- | --- | --- | --- | --- |
| CN[C@@]12CC[C@H](C(=O)O)[C@@H]1C2 [compound 2] | 9.8 µM | 22 | 211 µM | – |
| N[C@@]12CC[C@H](C(=O)O)[C@@H]1C2 [bicyclo-GABA, (1S,2S,5R)-5-aminobicyclo[3.1.0]hexane-2-carboxylic acid] | 1.5 µM | 407 | 610 µM | 1.26 µM |
